Experimental data from patent US20240018122A1, “PYRIDAZINYL AMINO DERIVATIVES AS ALK5 INHIBITORS” (CHIESI FARMACEUTICI S.P.A., priority 2020, published 2024).

The compounds below were run against human ALK5 (Homo sapiens (Human), UniProt P36897) (assay: ADP-GLO Kinases assay, inhibitory activity on ALK5). Conditions: not given.
Type: biochemical

Sequence of human ALK5 (P36897 80-503 limits assumed): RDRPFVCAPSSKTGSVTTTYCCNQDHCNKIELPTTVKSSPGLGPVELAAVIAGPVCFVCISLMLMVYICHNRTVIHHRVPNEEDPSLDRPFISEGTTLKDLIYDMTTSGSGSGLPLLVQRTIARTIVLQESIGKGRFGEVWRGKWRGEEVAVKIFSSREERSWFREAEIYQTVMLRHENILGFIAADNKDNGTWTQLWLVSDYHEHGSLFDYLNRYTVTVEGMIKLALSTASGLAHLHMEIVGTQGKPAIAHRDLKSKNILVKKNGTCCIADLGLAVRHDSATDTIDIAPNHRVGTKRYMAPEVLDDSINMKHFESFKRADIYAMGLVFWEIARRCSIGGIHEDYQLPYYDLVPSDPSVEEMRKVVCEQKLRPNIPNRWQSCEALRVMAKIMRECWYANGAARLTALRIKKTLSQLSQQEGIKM

| SMILES | IC50 [nM] |
| --- | --- |
| Cc1nnc(-c2cc(Cl)ccc2F)cc1Nc1ccnc2cc(OC(=O)N3C[C@@H]4C[C@H]3CN4C)ccc12 [Example 160, 4-{[6-(5-Chloro-2-Fluorophenyl)-3-Methylpyridazin-4-Yl]Amino}Quinolin-7-Yl (1S,4S)-5-Methyl-2,5-Diazabicyclo[2.2.1]Heptane-2-Carboxylate] | < 1 |

Same assay, conditions: purified recombinant human ALK5 2.6 nM, TGFβ1 peptide substrate, 25° C, 150 min incubation, ADP-Glo detection; read-out: ALK5 IC50

| SMILES | IC50 [nM] |
| --- | --- |
| CN1CCN(CCC(=O)Nc2ccc3c(Nc4cnnc(-c5cc(Cl)ccc5F)c4)ccnc3c2)CC1 [Example 32, N-(4-{[6-(5-Chloro-2-Fluorophenyl)Pyridazin-4-Yl]Amino}Quinolin-7-Yl)-3-(4-Methylpiperazin-1-Yl)Propanamide] | < 1 |
| COC(=O)CN1CCN(CC(=O)Nc2cc(Nc3cc(-c4cc(Cl)ccc4F)nnc3C)ccn2)CC1 [Example 96, methyl 2-(4-{[(4-{[6-(5-chloro-2-fluorophenyl)-3-methylpyridazin-4-yl]amino}pyridin-2-yl)carbamoyl]methyl}piperazin-1-yl)acetate] | < 1 |
| Cc1nnc(-c2cc(C(F)F)ccc2F)cc1Nc1ccnc(NC(=O)CCN2CCN(C)CC2)c1 [Example 190, N-[4-({6-[5-(Difluoromethyl)-2-Fluorophenyl]-3-Methylpyridazin-4-Yl}Amino)Pyridin-2-Yl]-3-(4-Methylpiperazin-1-Yl)Propenamide] | < 1 |
| Cc1nnc(-c2cc(Cl)ccc2F)cc1Nc1ccnc(NC(=O)CCN2CC[S+]([O-])CC2)c1 [Example 130, N-(4-{[6-(5-Chloro-2-Fluorophenyl)-3-Methylpyridazin-4-Yl]Amino}Pyridin-2-Yl)-3-(1-Oxo-1V-Thiomorpholin-4-Yl)Propanamide] | < 1 |
| CN1CCN(CCNC(=O)c2cc3c(Nc4cnnc(-c5cc(Cl)ccc5F)c4)ccnc3[nH]2)CC1 [Example 25, 4-{[6-(5-chloro-2-fluorophenyl)pyridazin-4-yl]amino}-N-[2-(4-methylpiperazin-1-yl)ethyl]-1H-pyrrolo[2,3-b]pyridine-2-carboxamide] | < 1 |
| Cc1nnc(-c2cc(Cl)ccc2F)cc1Nc1ccnc(NC(=O)CCN2CCN(C)C3(CC3)C2)c1 [Example 135, N-(4-{[6-(5-Chloro-2-Fluorophenyl)-3-Methylpyridazin-4-Yl]Amino}Pyridin-2-Yl)-3-{4-Methyl-4,7-Diazaspiro[2.5]Octan-7-Yl}Propanamide] | < 1 |
| CN1CCN(CCOc2ccc3c(Nc4cnnc(-c5cc(Cl)ccc5F)c4)ccnc3c2)C1 [Example 90, N-[6-(5-Chloro-2-Fluorophenyl)Pyridazin-4-Yl]-7-[2-(3-Methylimidazolidin-1-Yl)Ethoxy]Quinolin-4-Amine] | < 1 |
| CCN1CCN(CCOc2ccc3c(Nc4cnnc(-c5cc(Cl)ccc5F)c4)ccnc3c2)CC1 [Example 30, N-[6-(5-Chloro-2-Fluorophenyl)Pyridazin-4-Yl]-7-[2-(4-Ethylpiperazin-1-Yl)Ethoxy]Quinolin-4-Amine] | < 1 |
| COC(=O)[C@H]1CC[C@@H](c2nnc(-c3cc(Cl)ccc3F)cc2Nc2ccnc(NC(=O)CCN3CCN(C)CC3)c2)CC1 [Example 188, methyl cis-4-(6-(5-chloro-2-fluorophenyl)-4-((2-(3-(4-methylpiperazin-1-yl)propanamido)pyridin-4-yl)amino)pyridazin-3-yl)cyclohexane-1-carboxylate] | 1 to 5 |
| CN(C)CCN1CCN(CCOc2ccc3c(Nc4cnnc(-c5cc(Cl)ccc5F)c4)ccnc3c2)CC1 [Example 68, N-[6-(5-Chloro-2-Fluorophenyl)Pyridazin-4-Yl]-7-[2-[4-[2-(Dim Ethylamino)Ethyl]Piperazin-1-Yl]Ethoxy]Quinolin-4-Amine] | < 1 |
| Cc1nnc(-c2cc(Cl)ccc2F)cc1Nc1ccnc(NC(=O)CN2CCNCC2)c1 [Example 164, N-(4-{[6-(5-Chloro-2-Fluorophenyl)-3-Methylpyridazin-4-Yl]Amino}Pyridin-2-Yl)-2-(Piperazin-1-Yl)Acetamide] | < 1 |
